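Cultured in 96-well plates, cells were exposed to test compound for 48 hours across five concentrations. GI50 marks 50% less growth. TGI is the concentration that stops growth completely.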
Columns and labels:
Test in all cases: inhibition of tumour cell growth, NCI panel, 48 h
[1] = tested on: 786-0 renal
[2] = tested on: A498 renal
[3] = tested on: A549 NSCLC
[4] = tested on: ACHN renal
[5] = tested on: BT-549 breast
[6] = tested on: CAKI-1 renal
[7] = tested on: CCRF-CEM leukemia
[8] = tested on: COLO 205 colon
[9] = tested on: DU-145 prostate
[10] = tested on: EKVX NSCLC
[11] = tested on: HCC-2998 colon
[12] = tested on: HCT-116 colon
[13] = tested on: HCT-15 colon
[14] = tested on: HL-60(TB) leukemia
[15] = tested on: HOP-62 NSCLC
[16] = tested on: HOP-92 NSCLC
[17] = tested on: HS 578T breast
[18] = tested on: HT29 colon
[19] = tested on: IGROV1 ovarian
[20] = tested on: K-562 leukemia
[21] = tested on: KM12 colon
[22] = tested on: LOX IMVI melanoma
[23] = tested on: M14 melanoma
[24] = tested on: MALME-3M melanoma
[25] = tested on: MCF7 breast
[26] = tested on: MDA-MB-231 breast
[27] = tested on: MDA-MB-435
[28] = tested on: MOLT-4 leukemia
[29] = tested on: NCI-H226 lung
[30] = tested on: NCI-H23 lung
[31] = tested on: NCI-H460 lung
[32] = tested on: NCI-H522 lung
[33] = tested on: NCI/ADR-RES ovarian
[34] = tested on: OVCAR-3 ovarian
[35] = tested on: OVCAR-4 ovarian
[36] = tested on: OVCAR-5 ovarian
[37] = tested on: OVCAR-8 ovarian
[38] = tested on: PC-3 prostate
[39] = tested on: RXF 393 renal
[40] = tested on: SF-268 CNS
[41] = tested on: SF-295 CNS
[42] = tested on: SF-539 CNS
[43] = tested on: SK-MEL-2 melanoma
[44] = tested on: SK-MEL-28 melanoma
[45] = tested on: SK-MEL-5 melanoma
[46] = tested on: SK-OV-3 ovarian
[47] = tested on: SN12C renal
[48] = tested on: SNB-19 CNS
[49] = tested on: SNB-75 CNS
[50] = tested on: SR leukemia
[51] = tested on: SW-620 colon
[52] = tested on: T-47D breast
[53] = tested on: TK-10 renal
[54] = tested on: U251 CNS
[55] = tested on: UACC-257 melanoma
[56] = tested on: UACC-62 melanoma
[57] = tested on: UO-31 renal

With O=C(O)CCCN1C(=O)/C(=C/C(Cl)=C/c2ccccc2)SC1=S the GI50 [1] was 2.33 µM, the TGI [1] was 6.39 µM and the GI50 [2] was 1.96 µM. For the same compound, the TGI [2] was 3.57 µM, the GI50 [3] was 3.02 µM and the TGI [3] was 11.9 µM. The GI50 [4] was 1.2 µM, the TGI [4] was 4.4 µM and the GI50 [5] was 1.91 µM. The TGI [5] was 4.8 µM, the GI50 [6] was 1.66 µM and the TGI [6] was 3.76 µM. The GI50 [7] was 0.786 µM, the TGI [7] was 10.2 µM and the GI50 [8] was 1.9 µM. The TGI [8] was 4.49 µM, the GI50 [9] was 1.79 µM and the TGI [9] was 4.39 µM. It also gave a GI50 [10] of 2.21 µM, a TGI [10] of 5.91 µM and a GI50 [11] of 1.83 µM. The TGI [11] was 3.41 µM, the GI50 [12] was 1.13 µM and the TGI [12] was 4 µM. For the same compound, the GI50 [13] was 1.03 µM, the TGI [13] was 6.06 µM and the GI50 [14] was 0.551 µM. It also gave a TGI [14] of 10.5 µM, a GI50 [15] of 2.94 µM and a TGI [15] of 10.5 µM. It also gave a GI50 [16] of 3.17 µM, a TGI [16] of 9.78 µM and a GI50 [17] of 2.73 µM. The TGI [17] was 10.6 µM, the GI50 [18] was 2.85 µM and the TGI [18] was 10.6 µM. It also gave a GI50 [19] of 2.07 µM, a TGI [19] of 6.04 µM and a GI50 [20] of 1.52 µM. It also gave a TGI [20] of 16.3 µM, a GI50 [21] of 1.47 µM and a TGI [21] of 3.54 µM. For the same compound, the GI50 [22] was 0.383 µM, the TGI [22] was 1.38 µM and the GI50 [23] was 1.81 µM. For the same compound, the TGI [23] was 5.12 µM, the GI50 [24] was 2.09 µM and the TGI [24] was 5.24 µM. For the same compound, the GI50 [25] was 0.6 µM, the TGI [25] was 11.4 µM and the GI50 [26] was 3.17 µM. The TGI [26] was 10.7 µM, the GI50 [27] was 1.94 µM and the TGI [27] was 5.96 µM. For the same compound, the GI50 [28] was 0.591 µM, the TGI [28] was 11.9 µM and the GI50 [29] was 2.98 µM. For the same compound, the TGI [29] was 18.4 µM, the GI50 [30] was 2.34 µM and the TGI [30] was 6.27 µM. It also gave a GI50 [31] of 2.47 µM, a TGI [31] of 6.76 µM and a GI50 [32] of 2.21 µM. It also gave a TGI [32] of 6.62 µM, a GI50 [33] of 2.39 µM and a TGI [33] of 9.35 µM. For the same compound, the GI50 [34] was 1.39 µM, the TGI [34] was 3.21 µM and the GI50 [35] was 2.77 µM. For the same compound, the TGI [35] was 14.3 µM, the GI50 [36] was 2.48 µM and the TGI [36] was 5.78 µM. For the same compound, the GI50 [37] was 1.48 µM, the TGI [37] was 13.8 µM and the GI50 [38] was 2.23 µM. For the same compound, the TGI [38] was 10.3 µM, the GI50 [39] was 1.36 µM and the TGI [39] was 2.78 µM. It also gave a GI50 [40] of 2.5 µM, a TGI [40] of 7.41 µM and a GI50 [41] of 2.57 µM. For the same compound, the TGI [41] was 7.16 µM, the GI50 [42] was 1.98 µM and the TGI [42] was 4.85 µM. It also gave a GI50 [43] of 2.47 µM, a TGI [43] of 7.61 µM and a GI50 [44] of 1.66 µM. The TGI [44] was 3.47 µM, the GI50 [45] was 1.72 µM and the TGI [45] was 3.16 µM. The GI50 [46] was 6.24 µM, the TGI [46] was 19 µM and the GI50 [47] was 2.05 µM. The TGI [47] was 6.79 µM, the GI50 [48] was 2.78 µM and the TGI [48] was 10.9 µM. The GI50 [49] was 1.23 µM, the TGI [49] was 4.33 µM and the GI50 [50] was 0.719 µM. For the same compound, the TGI [50] was 15.3 µM, the GI50 [51] was 1.3 µM and the TGI [51] was 3.86 µM. It also gave a GI50 [52] of 1.89 µM, a TGI [52] of 5.38 µM and a GI50 [53] of 3.73 µM. It also gave a TGI [53] of 9.6 µM, a GI50 [54] of 1.8 µM and a TGI [54] of 4.63 µM. The GI50 [55] was 1.75 µM, the TGI [55] was 6.8 µM and the GI50 [56] was 1.47 µM. It also gave a TGI [56] of 3.62 µM, a GI50 [57] of 1.07 µM and a TGI [57] of 2.48 µM.

Reference: PubChem BioAssay (NCI)
